Format in all cases: in vivo
For test [1], the system named is ISO-induced zebrafish. The experiment in a line: Cardiac function of ISO-induced zebrafish myocardial injury model. The following applies: ISO=0.02 mg/L, CoQ10=4.0 mg/L, 24 hours; vs ISO group. On the procedure:
(§1) The zebrafish experiments are conducted in accordance to the internationally accepted standards. The wild type zebrafish strain AB is provided by the Developmental Biology Platform of Chongqing Medical University. Using the Shanghai Haisheng zebrafish aquatic ecosystem, the temperature in the fish tank is 28.5° C., the water temperature is 28-30° C., the salinity is 0.03%-0.04%, the pH is 7.2-7.6, and the photoperiod is 14 h light-10 h dark.
(§2) Three-day post fertilization wild-type zebrafish with normal development are used for the experiment and divided them into 4 groups, namely the control group, the ISO group (ISO=0.02 mg/L), the TC group (CoQ10=4.0 mg/L), and the CoQ10 group (CoQ10=4.0 mg/L), 30 in each group; The zebrafish in the ISO group are immersed in the ISO solution prepared with embryo culture water for 24 hours, then taken out and recorded their heart rate under a microscope. The signs of successful ISO-induced myocardial injury in zebrafish are a significant decrease in heart rate and the formation of pericardial edema. The zebrafish in the TC and CoQ10 groups are respectively immersed in embryo breeding water containing ISO and TC or CoQ10, incubated for 24 hours and then taken out for photography under a microscope.
(§3) First, the zebrafish are placed at room temperature and counted the number of heart beats within 15 seconds under a microscope. Then, the heart rate is obtained by multiplying it by 4. Then the zebrafish are placed in a petri dish, fixed with 1% low-melting agar, and held in a lateral position (with the eyes on top of the segments and the tail at the same level as the body). Fifty-eight images are generated by using an inverted fluorescence microscope for five consecutive shots. The diastolic and systolic images are selected, and the length (a) and width (b) of the ventricles are measured. The volume (V) of the ventricles is calculated with the ellipsoidal volume formula, and the surface area (S) of the ventricles is calculated with the elliptical area formula. The stroke-volume (SV), ejection fraction (EF), and fractional area change (FAC), cardiac output (CO) of zebrafish are calculated. Ventricular volume (V)=4/3π(a/2) (b/2)^2; Stroke-volume (SV)=Vdiastolic−Vsystolic; Ejection Fraction (EF)=(Vdiastole−Vsystole)/Vdiastole; Ventricular surface area (S)=(a/2) (b/2)π; Fractional Area Change (FAC)=(Sdiastolic−Ssystolic)/Sdiastolic; Cardiac Output (CO)=Cardiac volume*heart rate.

Test [2] has as its system ISO-induced zebrafish. In words: ISO-induced zebrafish pericardial edema (pericardial height). The following applies: ISO=0.02 mg/L, CoQ10=4.0 mg/L, 24 hours; vs ISO group. On the procedure:
as §2
Images are used to measure the height of the pericardium, the distance between the front of the yolk sac and the top of the pericardium, as shown by the arrow in FIG. 3(A).

In a further test the test system is H/R zebrafish. In words: Cardiac function of hypoxia-reoxygenation (H/R) zebrafish. The following applies: CoQ10=4.0 mg/L, reoxygenation 24 hours, vs H/R group. The method, then:
as §1
Three-day post fertilization wild-type of zebrafish with normal development are used for the experiment. The zebrafish are divided into 4 groups, namely the control group, the H/R (Hypoxia-reoxygenation) group, the TC group (CoQ10=4.0 mg/L), and the CoQ10 group (CoQ10=4.0 mg/L), n=30. Fill the beaker with circulating water for fish breeding, and then fill the water with high purity nitrogen. At the same time, use dissolved oxygen meter to detect the oxygen concentration in the water. Stop filling nitrogen until the oxygen concentration is stable at 0.00 mg/L. The air in the bevel glass bottle is discharged with nitrogen, and the prepared hypoxic water is put into the bevel glass bottle. The juvenile zebrafish of 3 days are put into the bottle, the cap is tightened, the glass bottle is placed into a plastic sealed bag, and then the sealed bag is vacuumed to ensure that no air enters. The end point of hypoxia is that the young fish sank to the bottom and remained motionless for 1 minute. At the same time, the zebrafish bent its body, turned the glass bottle upside down and then put it flat. The zebrafish sank head down and vertically. Then, the zebrafish are taken out and put into aquaculture water or medicine solution prepared with aquaculture water. After reoxygenation for 24 hours, the heart function indexes of zebrafish are examined.
as §3

The test system of test [3] is atrial natriuretic peptide (ANP). The experiment in a line: ANP gene expression by RT-PCR in ISO-induced zebrafish. The settings on record: ISO=0.02 mg/L, CoQ10=4.0 mg/L, 24 hours; vs ISO group. On the procedure:
as §2
(§4) Zebrafish RNA extraction, reverse transcription and quantitative amplification are performed in accordance with the instructions of the kit obtained from Nanjing Vazyme Biotech Co., Ltd, the article numbers are RC101, R223-01 and Q711-02.
(§5) ANP refers to atrial natriuretic peptide, BNP refers to brain natriuretic peptide, GAPDH refers to glyceraldehyde 3-phosphate dehydrogenase.

Another test has as its system LDH. The experiment in a line: Lactate dehydrogenase (LDH) in ISO-induced zebrafish. The following applies: ISO=0.02 mg/L, CoQ10=4.0 mg/L, 24 hours; vs ISO group. The method, then: as §2
(§6) The detection of SOD and LDH are carried out according to the instructions of the kits, which are purchased from NanJing JianCheng Bioengineering Institute with the article numbers of A001-3, A020-2 and A019-2-1, respectively.

For test [4], the system named is brain natriuretic peptide (BNP). In words: BNP gene expression by RT-PCR in ISO-induced zebrafish. The following applies: ISO=0.02 mg/L, CoQ10=4.0 mg/L, 24 hours; vs ISO group. On the procedure:
as §2, §4, §5

For a further test, the system named is SOD. In words: Superoxide dismutase (SOD) in ISO-induced zebrafish. The settings on record: ISO=0.02 mg/L, CoQ10=4.0 mg/L, 24 hours; vs ISO group. On the procedure: as §2, §6

With `COC1=C(OC)C(=O)C(C/C=C(\C)CC/C=C(\C)CC/C=C(\C)CC/C=C(\C)CC/C=C(\C)CC/C=C(\C)CC/C=C(\C)CC/C=C(\C)CC/C=C(\C)CCC=C(C)C)=C(C)C1=O` [CoQ10, Coenzyme Q10], in the test with ISO-induced zebrafish [1], the “cardiac output (CO)” value is given as “significantly increase”, the “ejection fraction (EF)” value is listed as “significantly increase”, the “fractional area change (FAC)” value is recorded as “significantly increase” and the heart rate entry is listed as “no significant effect”. The “stroke volume (SV)” value with ISO-induced zebrafish [1] is “significantly increase”. In the test with ISO-induced zebrafish [2], the “pericardial edema (pericardial height)” value was “no effect”. Besides, in the test on H/R zebrafish, the “cardiac output (CO)” value was “significantly increase”, the “ejection fraction (EF)” value is recorded as “significantly increase”, the “fractional area change (FAC)” value is reported as “significantly increase” and the heart rate result is reported as “no significant effect”. In the test with H/R zebrafish, the “stroke volume (SV)” value is recorded as “significantly increase”. Also, in test [3], the “excessive expression of ANP” value was “significantly reduce”. The “activity of LDH” value with LDH was “reduced the activity of LDH, the result is insignificant”. For the same compound, in test [4], the “excessive expression of BNP” value is listed as “significantly reduce”. The “activity of SOD” value in the test with SOD is listed as “no significantly effect”.

These data come from patent publication US20230111558A1, “Composition for Preventing and Treating Heart Dysfunction and its Application Thereof” (21ST CENTURY HERBS & HEALTH, priority 2021, published 2023).
